Source: patent US7026344B2, “Treating sickle cell disease” (priority 2000, dated 2006)

Key:
[1] = test system: K562 cells; test: K562 cell viability by trypan blue exclusion; type: cell-based, human; conditions: 75 μM and 100 μM
Experimental: Cell Culture. K562 cells were grown in suspension cultures in RPMI-1640 containing 10% fetal bovine serum, penicillin (100 U/ml) and streptomycin (0.1 mg/ml in a humidified incubator at 37° C. in a 5%CO2/95% air atmosphere. […] The K562 cells were induced for 72 hours then RNA isolated for further analysis. Cell viability was completed by 2% trypan blue exclusion at timnes 0 and 72 hours.

[2] = test system: activated-PMN mediated SRBC retention/adherence in the isolated-perfused rat lung; test: SRBC retention/adherence in isolated-perfused lung with PMA-activated PMNs; conditions: for SRBC retention/adherence: mean±SE
Experimental: Isolated perfused lung. Male Sprague-Dawley rats (275–350 g) were anesthetized with Nembutal sodium (25 mg ip), and lungs were removed for extracorporeal perfusion. A tracheostomy was performed that permitted ventilation with a Harvard rodent ventilator (model 683) at 55 breaths/min with a tidal volume of 2.5 ml and 2.0 cmH2O positive end-expiratory pressure. The inspired gas mixture as 95% air-5% CO2 (room air gas). A median stemotomy was performed, heparin sodium (100 IU) was injected in the right ventricle, and caminulas were placed in the pulmonary artery and left ventricle. Heart, lungs, and mediastinal structures were removed en bloc and placed into a humidified chamber. Lungs were perfused by a Gilson Minipuls 2 peristaltic pump at a constant flow of 0.03 ml·g body wt^−1·min^−1. Lungs were perfused with a physiological salt solution (PSS) containing bovine serum albumin (BSA, 66,000 mol.wt). The PSS-BSA perfusate contained (in mM) 119 NaCl, 4.7 KCI, 1.17 MgSO4, 22.5 NaHCO3, 1.18 KH2PO4, 3.2 CaCl2, 5.5 glucose, and 4 g/100 ml BSA. PSS-BSA (100 ml) was perfused through the lungs in a nonrecirculating fashion to remove residual blood cells and plasma. The perfusate was then changed to a PSS-BSA perfusate that contained RBCs from individuals homozygous for sickle cell anemia (Hb SS). The perfusate hematocrit was ˜10%. Pulmonary arterial pressure (Ppa) and pulmonary venous (Ppv) were continuously monitored with Cope pressure transducers (model 041-500-503) and recorded on a Grass polygraph recorder (model 7E). Zone 3 flow conditions (arterial>venous>alveolar pressures) were maintained throughout all experiments.
Blood collection. During steady-state, blood samples (˜40 ml) were obtained from normal (Hemoglobin A) human volunteers and from individuals with homozygous sickle cell anemia in the sickle cell clinics at the University of South Alabama. Samples were collected in syringes containing heparin and utilized within 48 hours of collection. Individuals having received blood transfusions within 6 wks were excluded from this study. Sickle cell anemia was documented by hemoglobin electrophoresis in each subject.
RBC isolation and Cr^51 labeling. Each whole blood sample was centrifuged at 4100 rpm for 10 min followed by the removal of the plasma and buffy coat. Packed RBCs were then mixed at a 1:3 dilution with normal saline and washed ×3. With each wash, the RBC suspension was centrifuged for 10 min at 3000 rpm followed by removal of the supernatant. Following the third wash, packed RBCs were resuspended in PBS (1 ml PBS/1 ml packed RBCs) and incubated with 100 μCi Cr^51 for 60 min in a shaker water bath at 37° C. Following incubation, the Cr^51 labeled RBCs were washed ×1 with normal saline and resuspended in PSS-BSA to obtain a hematocrit of ˜10%.
Neutrophil (PMN) isolations. Heparinized whole blood (20 ml) from individuals with homozygous sickle cell anemia was diluted 1:1 with normal saline. Dextran 500 was added to the 1:1 mix at ¼ the volume of the 1:1 mix. This was allowed to incubate for 45 min at 37° C. The supernatant (contains PMNs) was aspirated into a 50 ml centrifuge tube and underlayered with 10 ml histopague 1077. This was centrifuged at 1250 rpm for 30 min. The supernatant is aspirated and discarded leaving the PMN pellet. Sterile H2O, 3 ml, is added to the PMN pellet and agitated for 3 sec to lyse any residual RBCs. Phosphate buffered saline, 45 ml, is added immediately thereafter to stop the reaction. This is centrifuged at 1250 rpm for 10 min. The supernatant is aspirated and discarded. This process of RBC lysis followed by PBS is repeated until the PMN pellet is without visual evidence of RBC contamination. The PMN pellet is suspended in 1 ml of sterile Hank's balanced salt solution. A total PMN count is obtained using the Cell-DYN 900 Coulter Counter. PMN viability is 95–99% as assessed using trypan blue.
RBC Retention. […]

[3] = test system: human γ (Huγ) mRNA in K562 cells; test: γ globin mRNA induction in K562 cells by RNase protection assay; type: cell-based; conditions: K562, 48 hours, normalized to GAPD vs untreated
Experimental: Cell Culture. K562 cells were grown in suspension cultures in RPMI-1640 containing 10% fetal bovine serum, penicillin (100 U/ml) and streptomycin (0.1 mg/ml in a humidified incubator at 37° C. in a 5%CO2/95% air atmosphere. The following experimental conditions were analyzed in triplicate with 2×10^6 cells per well: an untreated control, ZL dissolved in 0.1% dimethylsulfoximide (DMSO) at final concentrations of […], HU at […] and two positive controls hemin (50 mM) and sodium butyrate (NB) 2 mM. The K562 cells were induced for 72 hours then RNA isolated for further analysis. Cell viability was completed by 2% trypan blue exclusion at timnes 0 and 72 hours.
RNA Isolation. RNA was isolated using RNA Stat-60 (TEL-TEST “B”, Inc., Friendswood, Tex.) according to the manufacturer's instructions. In brief, cell pellets will be suspended in RNA Stat-60 (1 ml) and chloroform (200 μl), and the RNA extracted and precipitated with isopropanol.
RNase Protection Analysis. MRNA levels will be quantitated by RNase protection assay (RPA) with probes designed to yield protected fragments for human γ (Huγ)and the internal control glyceraldehydes-3-phosphate dehydrogenase (GAPD). Huγ mRNA levels were normalized to that of GAPD and compared to the untreated K562 cells. (Zar: Statistical Analysis, Englewood)
Several pharmacological hemoglobin F inducers such as HU, 5-azacytidine, erythropoietin, didox, and butyrate alter γ gene expression in culture. The induction of γ gene activity in culture is a good indicator of potential clinical usefulness. Therefore the capability of ZL to induce γ gene activity at the mRNA level was tested. K562 cells were cultured in ZL from 0 to 100 μM or HU (50μ to 100 μM) for 48 hours. Total cellular RNA was analyzed by RPA for γ mRNA levels. An increase in γ mRNA for ZL at 20 μM with a maximal response at 75 μM (FIG. 4A) was observed. The level of γ gene mRNA synthesis was quantitated relative to the internal control, CAPD. […] K562 cell viability was decreased 10% when measured using trypan blue exclusion at 75 μM and 100 μM concentrations for both ZL and HU. The level of γ gene induction was 3.9 fold and 10-fold for the positive controls NB and hemin, respectively.

SMILES | decrease in K562 cell viability [1] [%] | decrease in SRBC retention/adherence ([2]; ZL 2.5 μM pretreated A-PMN vs SRBC+A-PMN control (ethanol diluent), 30 min perfusion) [%] | fold increase in γ mRNA ([3]; ZL 20 μM) [fold] | fold increase in γ mRNA (maximal) ([3]; ZL 75 μM) [fold] | SRBC retention/adherence ([2]; HU 50 μM pretreated A-PMN) | SRBC retention/adherence ([2]; HU 100 μM pretreated A-PMN) | SRBC retention/adherence ([2]; HU 1000 μM pretreated A-PMN) | decrease in retained SRBCs ([2]; HU 1000 μM pretreated PMNs vs control (H2O diluent)) [%] | attenuation of activated-PMN mediated enhanced SRBC retention/adherence ([2]; HU 50 and 100 μM) | fold increase in γ mRNA ([3]; HU 100 μM) [fold]
CC(c1cc2ccccc2s1)N(O)C(N)=O (racemic) [ZL, (±)-1-(1-Benzo[b]thien-2-ylethyl)-1-hydroxyurea] | 10 | ~42 | 2.6 | 4.1 | – | – | – | – | – | –
NC(=O)NO [HU, Hydroxyurea] | 10 | – | – | – | 4.2±0.4 ×10^8 SRBC/gram of lung | 4.3±0.4 ×10^8 SRBC/gram of lung | 3.9±0.2 ×10^8 SRBC/gram of lung | ~25 | did not attenuate | 2.7
